Measured values reported in ChEMBL document CHEMBL4184137, “Lysine Deacetylase Inhibitors in Parasites: Past, Present, and Future Perspectives” (J Med Chem, 2017).
Values belong to the molecule of their own block, whether it stands above or below them.

Key:
Schistosoma mansoni [1] = experiment: Antiparasitic activity against Schistosoma mansoni assessed cell viability at 20 uM after 4 days; assay type: functional
Schistosoma mansoni [2] = experiment: Antiparasitic activity against Schistosoma mansoni assessed as cumulative egg reduction at 20 uM; assay type: functional; design: scale not given: the % may be the effect or the level left
Trypanosoma cruzi = experiment: Antitrypanosomal activity against epimastigotes of Trypanosoma cruzi […] by Alamar Blue assay; assay type: functional, organism-based
[3] = Inhibition of recombinant Trypanosoma cruzi Sir2rp3
Schistosoma mansoni [4] = experiment: Antiparasitic activity against Schistosoma mansoni assessed as pairing at 20 uM after 5 days relative to control; assay type: functional
[5] = Inhibition of Plasmodium falciparum Sir2A
Plasmodium falciparum [6] = experiment: Antiplasmodial activity against Plasmodium falciparum 3D7 assessed as growth inhibition after 24 hrs by measuring incorporation of [3H]-hypoxanthine by liquid scintillation counting method; assay type: functional, organism-based
Schistosoma mansoni [7] = experiment: Antiparasitic activity against Schistosoma mansoni assessed cell viability at 20 uM after 5 days; assay type: functional
Leishmania infantum [8] = experiment: Antiproliferative activity against amastigote stage of Leishmania infantum measured for 1 min and 45 secs by propidium iodide staining-based flow cytometry; assay type: functional, organism-based
Leishmania infantum [9] = experiment: Antiproliferative activity against promastigote stage of Leishmania infantum measured for 1 min and 45 secs by propidium iodide staining-based flow cytometry; assay type: functional, organism-based
Leishmania infantum [10] = experiment: Antileishmanial activity against amastigote stage of Leishmania infantum MHOM/MA671TMAP263 expressing luciferase after 72 hrs by luciferase assay; assay type: functional, organism-based; conditions: MHOM/MA671TMAP263, 72 h
Schistosoma mansoni [11] = experiment: Antiparasitic activity against Schistosoma mansoni assessed as pairing at 20 uM after 6 days relative to control; assay type: functional
Plasmodium falciparum [12] = experiment: Antimalarial activity against Plasmodium falciparum using Malstat reagent by parasite lactate dehydrogenase assay; assay type: functional, organism-based
Histone deacetylase = target: T1, Histone deacetylase (Plasmodium falciparum, UniProt Q9XYC7); experiment: Inhibition of recombinant Plasmodium falciparum HDAC1 using HDAC substrate-3 after 30 mins by fluorescence assay
T1 sequence (Q9XYC7 whole entry): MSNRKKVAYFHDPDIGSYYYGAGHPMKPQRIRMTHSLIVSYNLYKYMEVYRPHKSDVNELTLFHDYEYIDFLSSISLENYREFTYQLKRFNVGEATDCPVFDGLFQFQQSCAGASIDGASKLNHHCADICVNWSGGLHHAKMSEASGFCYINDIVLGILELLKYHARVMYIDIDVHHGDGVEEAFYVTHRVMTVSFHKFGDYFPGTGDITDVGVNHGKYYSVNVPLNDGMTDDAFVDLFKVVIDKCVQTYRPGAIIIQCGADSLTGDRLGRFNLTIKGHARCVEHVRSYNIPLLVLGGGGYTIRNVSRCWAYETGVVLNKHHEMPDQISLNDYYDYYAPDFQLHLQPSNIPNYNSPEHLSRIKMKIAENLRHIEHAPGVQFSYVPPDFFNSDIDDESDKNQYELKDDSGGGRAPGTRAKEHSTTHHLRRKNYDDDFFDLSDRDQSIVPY

Leishmania donovani [13] = experiment: Antilieshmanial activity against promastigote stage of Leishmania donovani by fluorimetric assay; assay type: functional, organism-based
Leishmania donovani [14] = experiment: Antilieshmanial activity against amastigote stage of Leishmania donovani by fluorimetric assay; assay type: functional, organism-based
[15] = Selectivity index, ratio of IC50 for African green monkey Vero cells to IC50 for Plasmodium falciparum D6; assay type: toxicity; conditions: read-out: Ratio IC50
[16] = Selectivity index, ratio of IC50 for African green monkey Vero cells to IC50 for Plasmodium falciparum W2; assay type: toxicity; conditions: read-out: Ratio IC50
Plasmodium falciparum [17] = experiment: Gametocytocidal activity against transgenic GFP-fused Plasmodium falciparum NF54 early stage gametocytes after 72 hrs by Mitotracker Red CMH2XRos staining based microscopic method; assay type: functional, organism-based; conditions: NF54, 72 h
Plasmodium falciparum [18] = experiment: Gametocytocidal activity against transgenic GFP-fused Plasmodium falciparum NF54 late stage gametocytes after 72 hrs by Mitotracker Red CMH2XRos staining based microscopic method; assay type: functional, organism-based; conditions: NF54, 72 h
Toxoplasma gondii = experiment: Antiparasitic activity against Toxoplasma gondii; assay type: functional, organism-based

EC50 (Trypanosoma cruzi): 10.6 µM
Compound: CC(C(=O)Nc1cccc(/N=C/c2c(O)ccc3ccccc23)c1)c1ccccc1 (configuration not stated) [SALERMIDE]
Activity (Schistosoma mansoni [1]): 100%
Activity (Schistosoma mansoni [2]): 95%
IC50 [3]: 1 µM
Activity (Schistosoma mansoni [4]): 100%

IC50 [5]: > 50 µM
IC50 (Leishmania infantum [10]): 30 µM
Compound: CC(NC(=O)c1ccccc1/N=C/c1c(O)ccc2ccccc12)c1ccccc1 (configuration not stated) [SIRTINOL]
IC50 (Plasmodium falciparum [6]): 9 to 13 µM
Activity (Schistosoma mansoni [2]): 42%
Activity (Schistosoma mansoni [7]): 100%
IC50 (Leishmania infantum [8]): 30 µM
IC50 (Leishmania infantum [9]): > 60 µM
Activity (Schistosoma mansoni [11]): 75%

IC50 (Plasmodium falciparum [12]): 0.76 to 1.32 µM
IC50 (Histone deacetylase): 0.401 µM
IC50 (Leishmania donovani [13]): 3.2 µM
IC50 (Leishmania donovani [14]): 4.7 µM
Compound: CC[C@H]1OC(=O)[C@H](C)[C@@H](O[C@H]2C[C@@](C)(OC)[C@@H](O)[C@H](C)O2)[C@H](C)[C@@H](O[C@@H]2O[C@H](C)C[C@H](N(C)Cc3ccc(-c4cn(CCCCCCCCCC(=O)NO)nn4)cc3)[C@H]2O)[C@](C)(O)C[C@@H](C)C(=O)[C@H](C)[C@@H](O)[C@]1(C)O
selectivity ratio [15]: > 3.4
selectivity ratio [16]: > 6

Compound: O=C(CCCCCCC(=O)Nc1ccccc1)NO [VORINOSTAT]
IC50 (Plasmodium falciparum [17]): 1.68 to 6.65 µM
IC50 (Plasmodium falciparum [18]): 1.68 to 6.65 µM

Compound: CCC(=O)CCCCC[C@@H]1NC(=O)[C@H]2CCCCN2C(=O)[C@H]([C@@H](C)CC)NC(=O)[C@H](Cc2cn(OC)c3ccccc23)NC1=O [APICIDIN]
IC50 (Toxoplasma gondii): 0.013 to 0.015 µM
